Test results from patent publication US8293764B2, “Compositions and methods for disruption of BRCA2-Rad51 interaction” (The Regents of the University of California, priority 2004, dated 2012).

Assays:
[1] = tested on: non-small-cell lung carcinoma (CALU-1, A427, Sklu-1, CALU-6), osteosarcoma (SaoS2, U2OS) and glioblastoma (T98G) cell lines; experiment: Proliferation of other cancer cell lines; format: cell-based; conditions: CALU-1, A427, Sklu-1, CALU-6, SaoS2, U2OS
[2] = tested on: MCF-7 cells; experiment: Western blot of protein levels; format: cell-based; conditions: 20 mM IBR2, time dependent
Source text: To examine the impact of IBR2 on Rad51 protein expression, IBR2 treated MCF-7 cells was examined by straight western blot probed with a panel of antibodies against BRCA2, Rad51, Rad50, p84 and Rb. […] Consistent with our FACS analysis (FIG. 4A), the hypo-phosphorylated form of Rb, a marker for G1 phase, was the major form observed in the later time points, further confirming that IBR2 arrests cells at G1 phase (FIG. 4A). It has been reported that BRCA2 level is cell cycle dependent, which expresses low in G1 phase and peaks at G1/S boundary. Therefore the decreased level of BRCA2 in IBR2 treated cells may be due to G1 phase arrest. Different from BRCA2 protein, Rad51 protein is expressed constant throughout the cell cycle in MCF-7 cells (data not shown). Therefore, loss of Rad51 protein may be the direct effect of IBR2 treatment instead of the consequence of G1 arrest. To test whether IBR2 decreases Rad51 levels by destabilization, the inventors performed a stability assay by adding cyclohexamide (CHX) to inhibit de novo protein synthesis. […] Therefore, the inventors contemplate that IBR2 treated MCF-7 cells were arrested at G1, blocked at M phase entry, and died at S/G2 phase.
Western blot analysis: Cells were treated with 20 mM IBR2 or 50 μg/ml cycloheximide (CHX) or 1 μM MG132 and harvested at different time points for western blot analysis. Cells resuspended in Lysis 250 buffer were subjected to three freeze/thaw cycles (liquid nitrogen/37° C.) and then centrifuged at 14,000 rpm for 2 minutes at room temperature. After measuring protein concentration, equal amount of total cellular proteins were subjected to SDS-PAGE and immunoblot analyses were performed as described previously (Chen et al., 1999). Antibodies used were: Rad51 (rabbit 5952); BRCA2 (rabbit PC146, Oncogene); Rb (mAb 11D7); Rad50 (mAb 13B3) and p84 (mAb 5E10). The intensity of bands was quantified by densitometry using Labworks 4.5 software. The relative value of the band intensity was calculated with respect to that of untreated sample after normalization with the p84 signal.

[3] = tested on: human breast cancer xenograft (MDA-MB-468); experiment: Tumor inhibition assay in nude mice; format: in vivo
Protocol: To test the inhibitory effect of IBR2 on the growth of established tumor xenografts in nude mice, we chose the human breast cancer cell line MDA-MB-468 for this study. Mice with tumor size of approximately 85 mm3 were treated with three doses of IBR2 (10, 50 and 150 mg/kg i.p.) every other day for up to five weeks.
Tumor inhibition assay in nude mice: 5×10^6 MDA-MB-468 cells in 100 μl of PBS were injected into mammary fat pad of 6-8 week old athymic female BALB/c-nude mice (nu/nu) (Charles River Laboratories). After tumors grew to 85 mm^3 (day 12), mice were randomized into four groups (n=5 per group) to receive intraperitoneal injection of IBR2 (10, 50, or 150 mg/kg) or vehicle (15% DMSO, 20% Tween 20, 10% PEG400, 55% saline) every other day for 5 weeks. Body weights of mice and tumor volumes were measured twice weekly during the course of drug treatment. A Student's t test was used to determine P value.

[4] = molecular target: T1, Rad51-BRC repeat complex (Homo sapiens, UniProt Q06609); experiment: SPR solution competition assay; format: binding; conditions: SPR solution competition format; read-out: median inhibitory concentration (IC50), displacement of BRC repeat from complex with Rad51
T1 sequence (Q06609 1-339): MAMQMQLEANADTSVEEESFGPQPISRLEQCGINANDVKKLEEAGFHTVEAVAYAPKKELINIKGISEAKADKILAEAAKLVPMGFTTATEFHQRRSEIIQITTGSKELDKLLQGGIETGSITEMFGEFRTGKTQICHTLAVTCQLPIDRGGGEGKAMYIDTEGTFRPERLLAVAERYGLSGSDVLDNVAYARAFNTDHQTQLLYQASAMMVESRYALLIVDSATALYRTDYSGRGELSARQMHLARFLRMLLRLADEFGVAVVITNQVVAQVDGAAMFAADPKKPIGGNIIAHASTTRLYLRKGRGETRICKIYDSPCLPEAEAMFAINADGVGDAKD
Source text: If the IBR compound indeed occupies the hydrophobic pocket for the entrance of Phe1524 in BRCA2, the oligomerization of Rad51 should also be affected since they share the same binding region. […] Therefore, if IBR2 mimics the BRC hairpin structure, the Rad51 multimerization will also be inhibited by IBR2. We compared the gel filtration profile of Rad51 between with and without IBR2. […] The inhibition of the Rad51 and BRC repeat binding was further analyzed by SPR technology in a solution competition format as previously described (see e.g., Science 303, 844-848).
Surface Plasmon Resonance binding assays: The assays were performed at 25° C. in HBSD buffer (10 mM HEPES, 150 mM NaCl, 0.1% DMSO) on Biacore3000 (Biacore Inc.). Sensor chips NTA or glutathione-modified CM5 were used to capture His-Rad51 or GST-BRC1, respectively. The capture level was about 130 resonance units at a flow rate of 5 μl/min. For sequential binding assays, chips were treated with compounds (1 μM) and then proteins (50 μg/ml). The retained resonance units (RU) were recorded and averaged from triplicate experiments. For competition assays (Vassilev et al., 2004), IBR2 was incubated with 50 μg/ml BRC at 25° C. for 15 minutes prior to use. Relative binding percentages were calculated with respect to the binding without IBR2 and averaged from two independent experiments.

[5] = tested on: BRCA2-/-:p53-/-, BRCA1-/-:p53-/- and p53-/- MEFs; experiment: Sensitivity of isogenic MEFs to IBR2; format: cell-based; conditions: compared with BRCA1-/-:p53-/- and p53-/- MEFs
Source text: Next, the inventors examined the sensitivity to IBR2 treatment of isogenic MEFs with genotypes of BRCA2−/−:p53−/−, BRCA1−/−:p53−/− and p53−/−.

SMILES: O=S(=O)(Cc1ccccc1)N1C=Cc2ccccc2C1c1c[nH]c2ccccc12 (centres unmarked) [IBR2, 2-(benzylsulfonyl)-1-(1H-indol-3-yl)-1,2-dihydroisoquinoline]
- proliferation [1]: significantly inhibited
- BRCA2 protein level [2]: decreased dramatically
- Rad50 protein level [2]: remained constant
- Rad51 protein level [2]: decreased dramatically
- p84 protein level [2]: remained constant
- average body weights of nude mice ([3]; 10, 50 and 150 mg/kg i.p.): remained almost constant
- toxicity to animals ([3]; 10, 50 and 150 mg/kg i.p.): without apparent toxicity to animals
- retardation of tumor growth ([3]; 10, 50 and 150 mg/kg i.p. every other day up to five weeks, vs vehicle): up to 65%
- tumorigenicity in nude mice ([3]; mouse, in vivo): significantly reduced tumorigenicity in nude mice
- IC50 [4]: ~115 nM
- sensitivity of BRCA2-/-:p53-/- MEFs to IBR2 [5]: most sensitive
